Experimental data from patent publication US9072729B2, “Method for treating fibrosis and cancer with imidazolium and imidazolinium compounds” (Agency for Science, Technology and Research, priority 2008, dated 2015).
Read-outs that look alike come from different tables or passages of the source.

Key:
Type in all cases: cell-based, rat
[1] = system: HSC T6 cells; assay: MTS based proliferation assay (cytotoxicity) on cultured HSC-T6 cells; details: read-out: IC50 (toxicity on T6 cells)
Experimental: FIG. 1. Cytotoxicity of (a) DBZIM and (b) TDBZIM. […] The signal was normalized against a vehicle control treatment (0 μM of compound). The data were obtained from four independent experiments, and presented as mean and standard error or mean (SEM), *^aP<0.05, *^bP<0.01 and *^cP<0.005.
Firstly we assessed the cytotoxicity of DBZIM and TDBZIM on cultured HSC-T6 cells using a 3-(4,5-dimethylthiazol-2-yl)-5-(3-carboxymethoxyphenyl)-2-(4-sulfophenyl)-2H-tetrazolium (MTS) based proliferation assay kit (Promega, Wis., USA). […]

[2] = system: GFAP; assay: Real-time RT-PCR of GFAP mRNA in HSC T6 cells; details: 48 h; DPIM 2 mM, AMIM 50 μM, TMPHIM 50 μM, DBZBIM 100 μM
Experimental: (§1) FIG. 6. (a) DBZIM and (b) TDBZIM suppressed the mRNA expression of HSC activation markers (GFAP and SMAA) and fibrotic endpoints (col1a1 and fibronectin) in a dosage-dependent manner. […] The ΔΔCt method was used for relative quantification with vehicle control sample being the calibrator. The data were presented as mean and SEM, N=6, *^aP<0.05, *^bP<0.01, *^cP<0.005, and *^dP<0.0005, when compared to the vehicle control. FIG. 7. DBZIM (100 μM) and TDBZIM (100 μM) suppressed (a) GFAP, (b) SMAA, (c) col1a1 and (d) fibronectin mRNA expression in a time-dependent manner. HSC T6 cells were treated with DBZIM and TDBZIM, and assayed after 8, 24 and 48 h. […] FIG. 14. […] (50 μM), […] (50 μM), […] (10 μM) and DBZBIM (100 μM) were dissolved in DMSO with a final DMSO concentration of 0.2% (v/v). DPIM (2 mM), EGCG (25 μM) and DBZIM (100 μM) were dissolved in H2O. β-actin was used as the normalization gene; its expression was constant under the experimental conditions. Relative quantification was normalized against the respective vehicle control. The data were presented as mean and SEM, N=6, *^aP<0.05, *^cP<0.005, and *^dP<0.0005, when compared to the vehicle control. Total RNA was isolated using NucleoSpin RNAII isolation kit ([…], Germany), and quantified by ND-100 spectrophotometer (Nanodrop Technologies, DE, USA). The details of real-time RT-PCR were reported elsewhere (Zhang et al. 2006). Briefly, it was a two-step real-time RT-PCR using Taqman chemistry. Total RNA was first reverse transcribed to cDNA, and real-time PCR was run and detected in ABI 7500 Fast Real-Time PCR System (Applied Biosystems, CA, USA). Primers and probes for rat GFAP, SMAA, collagen Ia1, fibronectin, TGF-β1, TGF-β receptor I (TGFβ RI) and IL-6 were ordered from Taqman's assay-on-demand database. Rat β-actin was used as normalization gene, and its expression level was constant (CT difference was <±0.5) throughout the experimental settings in this study. Relative quantification of target mRNA was calculated using comparative threshold cycle method (ΔΔCT) as described in User Bulletin #2 (ABI Prism 7700 Sequence Detection System). Relative quantification was given by 2^-ΔΔCT to express the up-regulation or down regulation of the target gene under the treatments compared to the control.

[3] = system: SMAA; assay: Real-time RT-PCR of SMAA mRNA in HSC T6 cells; details: 48 h; DBIM 1 mM, DPIM 2 mM, AMIM 50 μM, TMPHIM 50 μM
Experimental: as §1

[4] = system: col1a1; assay: Real-time RT-PCR of col1a1 mRNA in HSC T6 cells; details: 48 h; DBIM 1 mM, DPIM 2 mM, TMPHIM 50 μM, DPPHIM 10 μM
Experimental: as §1

[5] = system: fibronectin; assay: Real-time RT-PCR of fibronectin mRNA in HSC T6 cells; details: 48 h; DPIM 2 mM, TMPHIM 50 μM, DBZIM 100 μM
Experimental: as §1

[6] = system: HSC-T6 cells; assay: Cellular ROS determination (DCF labeling); details: EGCG 25 μM, NAC 1 mM, 48 h
Experimental: FIG. 2. (a) DBZIM and (b) TDBZIM attenuated cellular ROS level. HSC T6 cells were incubated with DBZIM (10, 50, 100 and 300 μM), TDBZIM (10, 50 and 100 μM), NAC (1 mM) and EGCG (25 μM) for 48 h before assaying for cellular ROS levels. The data were presented as relative values after normalizing against a vehicle control. The data were presented as mean and SEM, N=6, *^bP<0.01, *^cP<0.005, and *^dP<0.0005 when compared to the vehicle, control.
The ROS level of treated HSC-T6 cells was determined using the dichlorofluorescein (DCF) labeling method (Molecular Probes Inc., OR, USA). Cultured cells were harvested by trypsinization, and resuspended in phenol red-free DMEM (Invitrogen). Cells were then incubated with 10 μg/ml of 2′,7′-dichloro-fluorescein diacetate (DCFH-DA) in DMEM for 15 min before resuspension in DMEM for assaying. Cell solution was dispensed into a black-wall 96-well pate in triplicate for fluorescence readout at Ex=485 nm and Em=530 nm with a Tecan Safire II plate reader. The fluorescence unit was normalized against viable cell numbers, which were determined using 3-(4,5-dimethylthiazol-2-yl)-2,5-diphenyl tetrazolium bromide (MTT assay, Promega, Wis., USA). Cellular ROS level was expressed relative to the control sample.

[7] = system: HSC-T6 cells; assay: Glutathione (GSH) and GSSG assays
Experimental: FIG. 3. […] (c) DBZIM and (d) TDBZIM both suppressed cellular GSSG (the oxidation product of GSH). (e) DBZIM and (f) TDBZIM both enhanced the GSH/GSSG ratio. HSC-T6 cells were incubated with compounds of various concentrations for 48 h, and assayed for the total GSH and GSSG amounts. The GSH/GSSG ratio was calculated as (GSH−GSSG)/GSSG. The GSH and GSSG amounts were normalized against the total protein. Note that DBZIM was dissolved in DMSO, and TDBZIM was dissolved in H2O. The data were presented as mean and SEM, N=6, *^aP<0.05, *^bP<0.01, *^cP<0.005, and *^dP<0.0005, when compared to the vehicle control.
Total cellular GSH and GSSG levels were determined by using assay kits from Cayman Chemical (Ann Arbor, Mich., USA) following the manufacturer's instructions. Briefly, HSC-T6 cells treated with DBZIM, TDBZIM, NAC, or EGCG were scalped and homogenized in phosphate buffered saline (PBS) by sonication at 60% frequency for 30 s, and the supernatant was collected after centrifugation at 16,000×g for 10 min at 4° C. Protein content of the samples was determined by bicinchonicic acid (BCA) assay.
For GSH assays, the protein sample was deproteinated by metaphosphoric acid (Aldrich, Catalog No. 23927-5), and the pH was adjusted by triethanolamine (Aldrich, Catalog No. T5830-0) according to the manual. The sample was ready for assaying total GSH including both the reduced and oxidized forms. Quantification of GSSG, exclusive of GSH, was performed by first derivatizing GSH with 2-vinylpyridine and assaying separately. Colorimetric signal was recorded at 405 nm with a Tecan Safire II plate reader. The levels of GSH or GSSG were determined as nmol/μg protein.

[8] = system: GPx; assay: Glutathione peroxidase (GPx) activity assay in treated cells
Experimental: (§2) FIG. 4. Effect of DBZIM and TDBZIM on GPx, CAT, SOD and GST. DBZIM affected (a) GPx activity and (c) CAT activity in a dosage-dependent manner. TDBZIM suppressed (b) GPx activity and (d) CAT activity. (e) DBZIM and (f) TDBZIM had little effect on SOD activity. (g) DBZIM induced GST activity. HSC T6 cells were treated with compounds of various concentrations for 48 h, and homogenized by sonication (60% frequency for 30 s) in PBS (pH 7.4, 1 mM of EDTA) for GPx, GST and CAT assays, or in 20 mM of HEPES buffer containing 1 mM of EGTA, 210 mM of mannitol and 70 mM of sucrose (pH 7.2) for SOD assay. Enzyme activity was normalized against total protein. DBZIM was dissolved in DMSO, and TDBZIM was dissolved in H2O. The data were presented as mean and SEM, N=6, *^aP<0.05, *^bP<0.01, *^cP<0.005, and *^dP<0.0005, when compared to the vehicle control.
(§3) Activity levels of three anti-oxidant enzymes, GPx, CAT and SOD, were determined using assay kits from Cayman Chemical. To assay GPx and CAT activities, protein samples were harvested in ice-cold PBS containing 1 mM of EDTA. To assay SOD activity, protein samples were prepared in 20 mM of N-(2-hydroxyethyl)-piperazine-N′-2-ethanesulfonic acid (HEPES) buffer containing 1 mM of ethylene glycol-bis(2-aminoethylether)-N,N,N′,N′-tetraacetic acid (EGTA), 210 mM of mannitol and 70 mM of sucrose. Protein content was determined by BCA assay.
GPx activity was indirectly measured by a coupled reaction with GSH reductase. Oxidized GSH, produced upon reduction of H2O2 by GPx, is recycled to its reduced state by glutathione reductase (GR) and nicotinamide adenine dinucleotide phosphate (NADPH). The oxidation of NAPDH is proportional to the GPx activity, and can be measured as a decrease in absorbance at 340 nm. GPx activity was expressed as nmol/min/mg protein.

[9] = system: CAT; assay: Catalase (CAT) activity assay in treated cells
Experimental: FIG. 4. […] Enzyme activity was normalized against total protein. DBZIM was dissolved in DMSO, and TDBZIM was dissolved in H2O. The data were presented as mean and SEM, N=6, *^aP<0.05, *^bP<0.01, *^cP<0.005, and *^dP<0.0005, when compared to the vehicle control.
Activity levels of three anti-oxidant enzymes, GPx, CAT and SOD, were determined using assay kits from Cayman Chemical. To assay GPx and CAT activities, protein samples were harvested in ice-cold PBS containing 1 mM of EDTA. […] Protein content was determined by BCA assay.
CAT activity was determined based on reaction of the enzyme with methanol in the presence of H2O2. The formaldehyde produced was measured spectrophotometrically at 540 nm using Purpald as the chromogen. CAT activity was expressed as nmol/min/mg protein.

[10] = system: SOD; assay: Superoxide dismutase (SOD) activity assay in treated cells
Experimental: as §2, §3
Total SOD, including all three types of SOD (Cu/Zn-, Mn- and Fe-SOD), was quantified using a tetrazolium salt to detect superoxide radicals generated by xanthine oxidase and hyposanthine. […] SOD activity was expressed as U/mg protein.

[11] = system: GST; assay: Glutathione S-transferase (GST) assay in treated cells; details: EGCG, NAC
Experimental: as §2
The activity of phase II anti-oxidant enzyme, GST, was assayed using a kit from Cayman Chemical. Protein samples were harvested in PBS buffer containing 1 mM of EDTA, and the protein concentration was determined by BCA assay. Total GST (cytosolic and microsomal) activity was assayed by measuring the conjugation of 1-chloro-2,4-dinitobenzene (CDNB) with reduced GSH, and monitored by an increase in absorbance at 340 nm. GST activity was expressed as nmol/min/mg protein.

[12] = Rattus norvegicus, HSC-T6, HSC T6 cells

“1,3-bis(2,4,6-trimethylphenyl)-imidazolinium chloride [TMPHIM]” was tested, and the IC50 ([1]; HSC T6 cells) was 110 µM, the “suppression of GFAP mRNA” value [2] was 66% and the “suppression of SMAA mRNA” value [3] was 49%. For the same compound, the “suppression of col1a1 mRNA” value [4] was 62% and the “suppression of fibronectin mRNA” value [5] was 29%.
`CC(=O)N[C@@H](CS)C(=O)O` [NAC, N-acetyl-L-cysteine, reference compound] was tested, and the “attenuation of cellular ROS level (references)” value [6] was “did not show apparent inhibition”, the “reduction of GSSG (references)” value ([7]; EGCG 25 μM, NAC 5 mM, 48 h) was “had no effect” and the “increase in GSH/GSSG ratio (references)” value ([7]; NAC 5 mM, EGCG 25 μM, 48 h) was “no change”. For the same compound, the “induction of total GSH (references)” value ([7]; NAC 5 mM, EGCG 25 μM, 48 h) was “did not show any effect”, the “attenuation of GPx activity (references)” value ([8]; EGCG 25 μM, NAC 5 mM) was “did not show much effect” and the “suppression of CAT activity (references)” value ([9]; EGCG, NAC (FIG. 4c)) was 35%. The “effect on SOD activity” value ([10]; HSC T6 cells, 48 h) was “did not show much effect” and the “effect on GST activity (references)” value [11] was “did not have much affect”.
In the case of `C[S+](C)[O-]` [DMSO, dimethylsulfoxide], the “GSH/GSSG ratio, of the control” value ([7]; 0.2% (v/v) DMSO vs untreated) is reported as 17%, the “GSSG amount, of the control” value ([7]; 0.2% (v/v) DMSO vs untreated) is reported as 4.4 fold and the “total cellular GSH level, of the control” value ([7]; 0.2% (v/v) DMSO vs untreated) is reported as 74%. The “GPx activity, of the control” value ([8]; 0.2% (v/v) DMSO vs untreated) was 2.62 times, the “CAT activity, of the control” value ([9]; 0.2% (v/v) DMSO vs untreated) was 1.7 fold and the “increase of SOD activity” value ([10]; 0.2% (v/v) DMSO vs untreated, not statistically significant) was 10%.
In the case of `[Br-].c1ccc(Cn2c[n+](Cc3ccccc3)c3ccccc32)cc1` [DBZBIM, 1,3-bisbenzyl-benzimidazolium bromide], the IC50 [1, 12] is reported as 310 µM and the “suppression of GFAP mRNA” value [2] is reported as 50%.
In the case of “1,3-bis(2,6-diisopropyl-phenyl)-imidazolinium chloride [DPPHIM]”, the IC50 ([1]; HSC T6 cells) is reported as 34 µM and the “suppression of col1a1 mRNA” value [4] is reported as 47%.
For `F[B-](F)(F)F.c1c[n+](C23CC4CC(CC(C4)C2)C3)cn1C12CC3CC(CC(C3)C1)C2` [AMIM, 1,3-bis(1-adamantyl)imidazolium tetrafluoroborate], the IC50 [1, 12] was 166 µM, the “suppression of GFAP mRNA” value [2] was 69% and the “suppression of SMAA mRNA” value [3] was 23%.
In the case of “1,3-di-tert-butylimidazoliniumtetrafluoroborate [DBIM]”, the IC50 ([1]; HSC T6 cells) is reported as 2000 to 3000 µM, the “suppression of SMAA mRNA” value [3] is reported as 49% and the “suppression of col1a1 mRNA” value [4] is reported as 58%.
